Measured values as given in a melting point compilation (Tetko et al.; mined from patent text by program, amines drawn as free bases though some values may be those of a salt).

| SMILES | melting point [°C] |
| --- | --- |
| CCn1c(C)c(C(=O)c2ccccc2C(=O)O)c2ccccc21 | 184 to 185 |
| Cc1nc(-n2ccc(-c3ccc(Cl)cc3)cc2=O)sc1C(=O)NCc1ccccc1 | 265 to 267 |
| Cc1ccc(CCC(=O)NCCCCN2CCN(C(c3ccccc3)c3ccccc3)CC2)cn1 | 126 to 127 |
| CCOC(=O)c1cnoc1-c1cc(Cl)c(Cl)s1 | 120 to 121 |
| COc1ccc(C2(Cl)CC(CNC(C)(C)C)=Nc3sc4c(c32)CCNC4)cc1OC (stereo not given) | 162 to 163 |
| CN(CCOc1ccc(CC(SCCN)C(=O)O)cc1)c1nc2ccccc2o1 (stereo not given) | 200 to 201 |
| Cc1ncc2c(n1)-c1ccc(Cl)cc1C(c1ccccc1Cl)=[N+]([O-])C2 | 215 to 216 |
| CN1CCC2(CC1)c1ccccc1Oc1c(N)cccc12 | 173 to 174 |
| O=C(O)c1cc2cc(-c3ccc(O)cc3)ccc2o1 | 297 to 300 |
| O=S1(=O)c2cccc3cccc(c23)N1CCCN1CCC(n2c(O)nc3ccccc32)CC1 | 253 |
| CC(C)C(C(=O)O)c1ccc2sccc2c1 (stereo not given) | 150 to 151 |
| COC(=O)CN(CCNC(=O)OC(C)(C)C)C(=O)Cc1cc2ccc(C)nc2[nH]c1=O | 98 to 100 |
| CC(C)c1nc(N)c(N)c(=O)[nH]1 | 198 to 200 |
| N#Cc1ccc(-c2ccc(Cl)cc2Cl)c(F)c1 | 65 to 67 |
| CCC(=O)Nc1c(Cl)cc(Cl)c(-c2nsc(C(F)(F)F)c2Cl)c1Br | 156 |
| CCN(CCOC)C(=O)C1=CC(c2ccccc2)C(=O)n2cc3cccc(Cl)c3c21 (stereo not given) | 146 to 148 |
| Cc1nc(-c2ccc(-c3cnc4[nH]c(=O)n(CCC5CCOCC5)c4n3)cc2)n[nH]1 | 290 to 292 |
| O=c1[nH]c(=O)n(CCCCN2CCC(OC(c3ccccc3)c3ccccc3)CC2)c2ccc([N+](=O)[O-])cc12 | 211 to 213 |
| O=C(CNC1=Nc2cccc3cccc1c23)NCCCn1ccnc1 | 145 to 146 |
| CCN(CC)CCC(=O)Nc1ccc2c(=O)c3ccc(NC(=O)CCN(CC)CC)cc3[nH]c2c1 | > 320 |
| CCOC(=O)Cc1sc(Sc2cccc(C(F)(F)F)n2)nc1C | 56 to 57 |
| CC(=O)Oc1cc(COC(=O)c2ccccc2)cnc1C | 57 |
| CCOC(=O)Cn1ncc(CC)c1O | 77 to 78 |
| O=C1CCc2cc(NCC(=O)N3CCC(Cc4ccc(F)cc4)CC3)ccc2N1 | 197 to 200 |
| CCOCCn1cc2c(C3C(=O)Nc4ccc(Br)cc43)nc(NCC(C)O)nc2n1 (stereo not given) | 298 to 300 |

| SMILES | melting point [°C] |
| --- | --- |
| Nc1nc(SCc2ccccc2)c2ncn(C3CC(F)C(CO)O3)c2n1 (stereo not given) | 150 to 151 |
| Clc1ccc(Oc2cncc3sc(-c4nnn[nH]4)cc23)cc1 | 250 to 254 |
| CC(C)(C)OC(=O)Nc1ccc(NC(=O)OC(C)(C)C)c(Br)c1 | 130 |
| O=C(O)c1cccc(C(c2cc(F)ccc2F)S(=O)(=O)c2ccc(Cl)cc2)n1 (stereo not given) | 200 to 201 |
| COc1cc2c(c(-c3cc(F)ccc3F)c1)OC(CN)C2 (stereo not given) | 118 to 120 |
| COC(=O)c1c(C(=O)OC)c(-c2ccc(Cl)cc2)n2c1Cc1ccccc1C2 | 164 to 166 |
| Cc1noc2cc3c(cc12)C1(CO3)C(=O)N(CC2CCCO2)c2ccccc21 (stereo not given) | 134 to 135 |
| O=C(Cc1ccccc1)Nc1n[nH]c(-c2ccc(F)cc2)c1-c1ccncc1 | 289 to 290 |
| Cc1oc(-c2ccc(C(N)=O)cc2)nc1CCOc1ccc(OC(C)(C)C(=O)O)cc1 | 126 to 127 |
| COc1ccc(Nc2nc(NC3CCCCCC3)cc(N3CCC(O)CC3)n2)cc1Cl | 84 to 86 |
| CCCCCCCCCCCC(=O)c1ccc(CCOC(C)=O)cc1 | 32 to 33 |
| CCNC(=O)c1sc(C=O)cc1[Si](C)(C)C | 62 to 65 |
| N#Cc1ccc(S(=O)(=O)Nc2cccnc2Nc2ccccc2)cc1 | 155 to 157 |
| O=C(OCC(F)(F)F)c1ncn2c1CN=C(c1ccccc1F)c1cc(Br)ccc1-2 | 223 to 224 |
| COc1nc2c(S(=O)(=O)c3ccccc3)c(SC)nn2c(N2CCN(C)CC2)c1C | 207 to 208 |
| CCN(CC)c1ccc(F)c2nc3n(c12)CCCN3c1ccc(Cl)cc1Cl | 170 to 172 |
| CC1Nc2ccc(Cl)c3cccc(c23)S1(=O)=O (stereo not given) | 150 |
| CCS(=O)(=O)Nc1cc(-n2nc3ccc(Cl)cn3c2=O)c(F)cc1Cl | 120 to 122 |
| O=C1CCC(N2Cc3c(OCc4ccc(CSc5nc6ccccc6[nH]5)cc4)cccc3C2=O)C(=O)N1 (stereo not given) | 160 to 162 |
| O=c1nc(-c2c(F)cccc2F)oc(=O)n1-c1ccc(Cl)c(Cl)c1 | 196 to 197 |
| C=CC(=O)Nc1ccc2[nH]nnc2c1 | 248 to 253 |
| CCOc1cccc(OCC)c1NC(=O)Cc1c(-c2ccccc2OC)c2cc(Cl)ccc2n1C | 180 to 183 |
| Clc1ccc(N=C2NCCN2)c(Cl)c1Cl | 161 |
| Nc1cc(O)nc(SCc2c(F)cccc2F)n1 | 245 to 246 |
| Cc1nc(-c2ccccc2)n[nH]c1=O | 75 to 76 |

| SMILES | melting point [°C] |
| --- | --- |
| O=Cc1ccccc1-c1nc2ccccc2o1 | 117 to 120 |
| Cc1cc(-c2cc(C(F)(F)F)nc(-c3ccnc(-c4cccc(S(N)(=O)=O)c4)c3)n2)ccc1Cl | 234 |
| COC(=O)CCCCCOc1ccc(NC(=O)CCCCCOCc2ccccc2)cc1 | 64 to 65.6 |
| COC(=O)C(C)(C)CCCOc1cc(C)c(NC(=O)C(C)(C)CCCOc2cc(C)ccc2C)cc1C | 60 to 62 |
| Cc1ccc(-c2nc(O)cc(-c3ccccc3)n2)cc1 | 282 to 283 |
| Fc1ccc(-c2n[nH]cc2-c2ccnc(Cl)n2)cc1 | 204 to 205 |
| CCOc1nn(-c2ccc(C(F)(F)F)cn2)cc1CCCOc1ccc(OC(C)(C)C(=O)O)cc1 | 91 to 92 |
| CC(=O)Nc1nc(CCc2ccc(CO)cc2)c(Cc2ccc(S(C)(=O)=O)cc2)s1 | 210 to 211 |
| CC1(C)OC(c2ccc(S(C)(=O)=O)cc2)=C(c2ccc(F)c(Cl)c2)C1=O | 162 to 164 |
| O=C(O)CCCc1cc2nc(Cl)ccc2n1S(=O)(=O)c1ccc(F)cc1 | 180 |
| COc1ccc(-c2cc(C#N)c(=O)[nH]c2C)cc1 | 258 to 259 |
| O=C(NC/C=C\COc1cc(CN2CCCCC2)ccn1)c1cn[nH]c1 | 121 to 123 |
| CCOC(=O)C(NC(C)=O)C(=O)CCCCc1ccccc1 (stereo not given) | 54 to 55 |
| CCCN(CCC)c1ccc(CCC(=O)O)c2c1CCCN2C(=O)OC(C)(C)C | 84 to 86 |
| COC1CCC(S(=O)(=O)c2ccccc2)O1 (stereo not given) | 68 |
| O=CCC(c1ccccc1)c1cc(Br)ccc1OCc1ccccc1 (stereo not given) | 99 to 100 |
| COc1cccc(NN)n1 | 30 to 40 |
| Cc1ccc2nc(N3CC[C@H](NCCO)C3)ccc2c1NC(=O)CC1CCCCC1 | 204 to 207 |
| COCCO[C@@H]1c2ccn3c(Cl)c(C)nc3c2N(C(C)=O)[C@H](c2ccccc2)[C@H]1OC(=O)C(C)(C)C | 145 to 147 |
| CC(C)C[C@H](NS(=O)(=O)c1ccc(N(C)C)cc1)C(=O)N[C@H](C#N)CCc1ccccc1 | 46 to 48 |
| O=C(O)C1Cc2cc(CCNS(=O)(=O)c3ccccc3)ccc2O1 (stereo not given) | 132 to 133 |
| COc1ccccc1Oc1c(NS(=O)(=O)c2c(C)noc2C)nc(-c2ncccn2)nc1OCCOC(=O)Nc1ccccn1 | 217 to 218 |
| CCCCc1nc2ccccn2c(=O)c1-c1ccc(N[C@@H]2CCN(C)C2)cc1 | 64 to 66 |
| CCC1CC(N)=NN1c1ccccc1 (stereo not given) | 123 to 125 |
| CC(=O)C(=Cc1ccc(O)cc1)C(C)=O | 123 to 127 |

| SMILES | melting point [°C] |
| --- | --- |
| CCc1cc(C(=O)OC(C)C)c2cc(C(C)C)cccc1-2 | 69 to 71 |
| Cc1c(-c2ccc(C#N)cc2)n[nH]c1C(=O)O | 260 |
| Clc1ccccc1C(Cl)c1ccc(-c2ccccc2)cc1 (stereo not given) | 80 |
| CCOC(=O)Cn1c(=O)c(=O)[nH]c2ccc3ccc(-n4ccc(CNC(=O)c5ccccc5)c4)cc3c21 | > 250 |
| COC(=O)C1=C(C)NC(O)=C(C(=O)OC)C1c1cccc([N+](=O)[O-])c1 (stereo not given) | 150 to 152 |
| COc1ccc(CSc2nnc(-c3ccn4ncnc4c3)o2)cc1C#N | 247 to 248 |
| CC(=O)NCC1(C)OCCc2c1[nH]c1ccccc21 (stereo not given) | 100 to 102 |
| Cc1cc(C)nc(NC(=O)NS(=O)(=O)c2ccccc2C(Cl)Cl)n1 | 195 to 197 |
| O=C(OCc1ccccc1)N1CCC2(CC1)CC(=O)N(O)C2=O | 131 to 132 |
| O=C(O)CCc1oc(N2CCOCC2)nc1-c1ccc(Cl)cc1 | 180 to 181 |
| O=P1(c2cccc(F)c2)c2ccccc2CN1c1ccccc1 (stereo not given) | 209 to 210 |
| O=C(O)CN1C(=O)C(O)N(Cc2cccc([N+](=O)[O-])c2)C1=O (stereo not given) | 123 to 125 |
| OCCCCCCOc1ccc(-c2ccccc2)cc1 | 92 to 94 |
| Cc1ccc([N+](=O)[O-])c(C)c1CO | 94.5 to 96.1 |
| Clc1ccc(-c2coc3c(Br)cccc23)cc1Cl | 158 to 160 |
| Cc1ccc(-c2ccc(S(=O)(=O)N3c4ccccc4CC3C(=O)NCCOc3ccc(CC(=O)O)cc3)cc2C(F)(F)F)cc1 (stereo not given) | 92 |
| N#Cc1cc(I)ccc1N | 85 to 86 |
| CCn1cc(C(=O)O)c(=O)c2cc(F)c(N3CCSC3)cc21 | 270 to 273 |
| CCOCCC(Cc1ccc(NC(=O)NC(=O)c2ccc(C#N)cc2)cc1)C(=O)OC(C)(C)C (stereo not given) | 144 to 145 |
| CCN(c1ccc(C#N)cc1[N+](=O)[O-])S(=O)(=O)c1ccc(Cl)s1 | 102 to 103 |
| N#Cc1ccc(-c2ccccc2)c(NC(=O)Nc2cccnc2)c1 | 180 to 182 |
| COC(CN(C)c1nccc(Oc2ccc(NC(=O)c3cc(F)cc(N4CCOCC4)c3)c3ccccc23)n1)OC | 92 to 94 |
| O=C(NCCCC(=O)N1CCCC1=O)c1cc(Br)no1 | 141 to 142 |
| c1ccc(Oc2ccc(OCCOn3cccn3)cc2)cc1 | 83 to 85 |
| O=C(O)c1c(Cc2cc3c(cc2Cl)OCO3)c(-c2ccccc2)nn1CC1CCCC(C(=O)O)C1 (stereo not given) | 130 |
